Results published in the NIST ThermoML archive (doi:10.1016/j.fluid.2008.03.013).
± gives the expanded uncertainty stated by the source.

Conditions: Transpiration method

CCC1COC(=O)O1 (stereo unspecified) [1,2-butylene carbonate]
Liquid
Conditions | vapor or sublimation pressure [kPa]
288.6 K | 0.00186 ± 0.0001
293.5 K | 0.00284 ± 0.00015
298.5 K | 0.00453 ± 0.00024
303.4 K | 0.00649 ± 0.00034
307.3 K | 0.0087 ± 0.00046
310.3 K | 0.01164 ± 0.00061
313.3 K | 0.01439 ± 0.00075
316.3 K | 0.01837 ± 0.00096
319.3 K | 0.02281 ± 0.0012
322.5 K | 0.02805 ± 0.0015
327.4 K | 0.04092 ± 0.0021
330.3 K | 0.04839 ± 0.0025
333.6 K | 0.06415 ± 0.0033
338.7 K | 0.086 ± 0.0044
343.8 K | 0.1159 ± 0.0059

CC1COC(=O)O1 (stereo unspecified) [4-methyl-1,3-dioxolan-2-one]
Liquid
Conditions | vapor or sublimation pressure [kPa]
298.4 K | 0.0085 ± 0.00045
303.3 K | 0.01247 ± 0.00065
308.2 K | 0.0181 ± 0.00094
311.3 K | 0.0223 ± 0.0011
313.2 K | 0.02529 ± 0.0013
318.2 K | 0.03723 ± 0.0019
321.2 K | 0.04503 ± 0.0023
322.7 K | 0.05193 ± 0.0028
324.2 K | 0.05893 ± 0.0031
326.6 K | 0.06788 ± 0.0035
329.6 K | 0.08307 ± 0.0043
332.7 K | 0.1019 ± 0.0053
335.7 K | 0.1281 ± 0.0066
337.7 K | 0.1375 ± 0.007
338.8 K | 0.1525 ± 0.0079
340.8 K | 0.1721 ± 0.0088
341.8 K | 0.1787 ± 0.0092
344.9 K | 0.2178 ± 0.011

O=C1OCCO1 [ethylene carbonate]
Conditions | vapor or sublimation pressure [kPa]
280.6 K, Crystal | 0.00062 ± 4e-05
286.2 K, Crystal | 0.00119 ± 7e-05
291.3 K, Crystal | 0.002 ± 0.00011
295.5 K, Crystal | 0.00325 ± 0.00018
299.4 K, Crystal | 0.00472 ± 0.00025
303.2 K, Crystal | 0.00675 ± 0.00036
304.4 K, Crystal | 0.00785 ± 0.00042
306.4 K, Crystal | 0.00907 ± 0.00048
308.4 K, Crystal | 0.01077 ± 0.00056
310.3 K, Liquid | 0.012 ± 0.00063
314.4 K, Liquid | 0.01615 ± 0.00084
314.5 K, Liquid | 0.01614 ± 0.00084
317.3 K, Liquid | 0.02 ± 0.001
320.3 K, Liquid | 0.02499 ± 0.0013
320.4 K, Liquid | 0.02475 ± 0.0013
323.5 K, Liquid | 0.0305 ± 0.0016
324.4 K, Liquid | 0.03281 ± 0.0017
327.4 K, Liquid | 0.03939 ± 0.002
328.6 K, Liquid | 0.04312 ± 0.0022
331.3 K, Liquid | 0.05119 ± 0.0026
333.6 K, Liquid | 0.05962 ± 0.0031
335.4 K, Liquid | 0.06848 ± 0.0035
338.7 K, Liquid | 0.08312 ± 0.0043
341.4 K, Liquid | 0.0978 ± 0.005
342.3 K, Liquid | 0.1031 ± 0.0052
343.8 K, Liquid | 0.1094 ± 0.0056
345.2 K, Liquid | 0.1213 ± 0.0062
347.6 K, Liquid | 0.1379 ± 0.0071
349 K, Liquid | 0.154 ± 0.008
352.4 K, Liquid | 0.1869 ± 0.0095
354 K, Liquid | 0.2037 ± 0.01
357.5 K, Liquid | 0.2473 ± 0.013
358.9 K, Liquid | 0.2642 ± 0.014
360.6 K, Liquid | 0.292 ± 0.015
363.2 K, Liquid | 0.3283 ± 0.017
364.1 K, Liquid | 0.3486 ± 0.018
366.7 K, Liquid | 0.4047 ± 0.021
369.5 K, Liquid | 0.4694 ± 0.024

O=C1OCC(CO)O1 (stereo unspecified) [glycerine carbonate]
Liquid
Conditions | vapor or sublimation pressure [kPa]
330.2 K | 0.00029 ± 2e-05
333.2 K | 0.00039 ± 2e-05
338.3 K | 0.00062 ± 3e-05
343.2 K | 0.00091 ± 5e-05
348.4 K | 0.00144 ± 8e-05
351.2 K | 0.00173 ± 9e-05
355.5 K | 0.0025 ± 0.00013
359.8 K | 0.00368 ± 0.00018
360.6 K | 0.00362 ± 0.00018
363.7 K | 0.00433 ± 0.00023
366.4 K | 0.00542 ± 0.00028
369.4 K | 0.00681 ± 0.00035
371.8 K | 0.00782 ± 0.00041
373.2 K | 0.00886 ± 0.00047
377.2 K | 0.01171 ± 0.00062
384.5 K | 0.02019 ± 0.001
387.3 K | 0.02392 ± 0.0012
388 K | 0.02471 ± 0.0013
392.7 K | 0.03339 ± 0.0017
398.5 K | 0.04694 ± 0.0024
